Results from patent US20210369768A1, “METAL DI-AMINO ACID CHELATES OR METAL TRI-AMINO ACID CHELATES” (Balchem Corporation, priority 2020, published 2021).
Peptide text beside a SMILES is read from it.

Experiments:
Caco-2 cells [1] = experiment: Cellular uptake of magnesium complexes in Caco-2 cells (BioVision colorimetric magnesium uptake assay kit); conditions: Example 12, FIG. 72
Protocol: (§1) Magnesium uptake colorimetric assay kits were purchased from BioVision (Catalog #385-100). […] HEK-293 (ATCC® CRL-1573TM) cells, Caco-2 (ATCC® HTB-37TM) cells, and Dulbecco's Modified Eagle Medium (ATCC® 30-2002) were purchased from ATCC. Penicillin streptomycin (10,000 U/mL), fetal bovine serum (FBS), and trypsin/EDTA (0.25%) were purchased from Gibco™.
(§2) Caco-2 cells were cultured from Liquid N2 frozen stocks and rapidly thawed to RT using a water bath at 37° C.; cryopreservation media was removed with a micropipette after cells were pelleted via centrifugation for 8-10 minutes at 125 g. Cells were resuspended in 1 mL of room temperature DMEM and cultured in 14 mLs DMEM (total volume of 15 mLs) with a seeding density of 3.6×10^4 cells/cm^2 in a T-75 cm^2 culture flask and left to grow in an incubator at 37° C. and 5% CO2. Cells were sub-cultured at 90% confluency, and sub-culturing occurred a minimum of five times before use in uptake assays. When ready-to-use cultures were at 90% confluency, old DMEM media was pipetted off and 3-4 mLs of trypsin was added—the trypsinized culture flask was placed back in the incubator for 5-10 minutes to detach cells. Once detached, the culture flask was rinsed with 6-8 mLs of fresh DMEM to neutralize the trypsin -cells for uptake assays were counted utilizing a DeNovix CellDrop™. Once counted, cells were pelleted down via centrifugation at 125 g for 8-10 minutes, and the neutralized trypsin-media supernatant was pipetted off. Cells were resuspended in 5 mLs magnesium assay buffer for cellular uptake assay.
(§3) Cellular uptake data was collected at incubation times of 1 hr (required kit incubation time), 4 hrs (the amount of time required for uptake in the GI), and 24 hrs (the amount of time required for a complex to clear the GI).
(§4) Kinetics were evaluated utilizing the slope of the line of uptake of the complex in the Caco-2 cells.

[2] = Stability of the complex in solution via 1H NMR; type: physicochemical; conditions: 1H NMR in D2O
From the text: At 72 hrs, an observable upfield shift occurs, which may be due to isomer formation. There is no observable change in proton integration. NMR taken in D2O.

Caco-2 cells [3] = test system: Caco-2 cells
Protocol: as §1, §2, §3, §4

Compound: NCC(=O)[O-].NCC(=O)[O-].[Mg+2] [MgBG, magnesium bisglycinate, reference compound]
- cellular uptake in CaCo-2 cell line relative to other magnesium complexes (Caco-2 cells [1]): significantly less cellular uptake than Mg(G3)

Compound: NCC(=O)NCC(=O)NCC(=O)[O-].[Mg+2].[OH-] [Mg(G3), magnesium 2-[[2-[(2-aminoacetyl)amino]acetyl]amino]acetic acid chelate] (H-Gly-Gly-Gly-OH)
- stability in solution [2]: considerable stability for periods up to 72 hrs
- cellular uptake at 24 hrs (Caco-2 cells [3]): cell saturation

Compound: magnesium diglycine [MgG2]
- cellular uptake in CaCo-2 cell line relative to other magnesium complexes (Caco-2 cells [1]): relatively linear uptake in the CaCo-2 cell line similar to that of both magnesium chloride (MgCl2) and magnesium bisglycinate (MgBG)
